21 molecules from patent US7528138B2, “Pyrazolo[1,5-a]pyrimidines useful as inhibitors of protein kinases” (Vertex Pharmaceuticals Incorporated, priority 2004, dated 2009) can be followed below.

Common to all, as to assay type: biochemical
The target of one assay is c-Met (Homo sapiens, UniProt P08581). In words: c-Met Inhibition Assay, coupled enzyme system. The following applies: enzyme inhibition data (Ki), Table 11. The procedure: Compounds are screened for their ability to inhibit c-Met kinase activity using a standard coupled enzyme system (Fox et al., Protein Sci. 1998, 7, 2249). Reactions are carried out in a solution containing 100 mM HEPES (pH 7.5), 10 mM MgCl2, 25 mM NaCl, 300 μM NADH, 1 mM DTT, and 1.5% DMSO. Final substrate concentrations in the assay are 200 μM ATP (Sigma Chemicals, St Louis, Mo.) and 10 μM polyGluTyr (Sigma Chemical Company, St. Louis). Reactions are carried out at 30° C. and 80 nM c-Met. Final concentrations of the components of the coupled enzyme system are 2.5 mM phosphoenolpyruvate, 300 μM NADH, 30 μg/ml pyruvate kinase and 10 μg/ml lactate dehydrogenase.
An assay stock buffer solution is prepared containing all of the reagents listed above with the exception of ATP and a test compound of the present invention. The assay stock buffer solution (175 μl) is incubated in a 96 well plate with 5 μl of the test compound of the present invention at final concentrations spanning 0.006 μM to 12.5 μM at 30° C. for 10 minutes. Typically, a 12-point titration is conducted by preparing serial dilutions (from 10 mM compound stocks) with DMSO of the test compounds of the present invention in daughter plates. The reaction is initiated by the addition of 20 μl of ATP (final concentration 200 μM). Rates of reaction are obtained using a Molecular Devices Spectramax plate reader (Sunnyvale, Calif.) over 10 minutes at 30° C. The Ki values are determined from the rate data as a function of inhibitor concentration.

Another assay addresses T1, Itk (Homo sapiens, UniProt Q08881).
T1 sequence (Q08881 1-620): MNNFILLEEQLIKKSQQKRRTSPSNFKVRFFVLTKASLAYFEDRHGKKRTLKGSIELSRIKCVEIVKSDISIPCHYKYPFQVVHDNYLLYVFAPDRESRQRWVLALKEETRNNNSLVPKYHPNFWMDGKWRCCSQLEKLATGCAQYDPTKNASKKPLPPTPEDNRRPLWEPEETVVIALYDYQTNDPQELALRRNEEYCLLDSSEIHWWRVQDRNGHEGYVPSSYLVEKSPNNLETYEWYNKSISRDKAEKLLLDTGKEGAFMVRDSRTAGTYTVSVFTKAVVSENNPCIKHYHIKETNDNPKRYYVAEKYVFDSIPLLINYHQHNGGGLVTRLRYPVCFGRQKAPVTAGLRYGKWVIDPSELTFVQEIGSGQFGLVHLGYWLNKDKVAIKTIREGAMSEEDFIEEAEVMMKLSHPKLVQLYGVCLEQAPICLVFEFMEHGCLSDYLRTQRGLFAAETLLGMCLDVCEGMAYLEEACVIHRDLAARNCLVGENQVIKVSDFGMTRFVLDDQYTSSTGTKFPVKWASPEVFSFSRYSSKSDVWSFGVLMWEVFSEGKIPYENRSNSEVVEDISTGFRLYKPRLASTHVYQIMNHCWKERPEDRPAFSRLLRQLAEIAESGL
In words: ITK Inhibition Assay (Radiometric), radioactive-phosphate incorporation. The following applies: enzyme inhibition data (Ki), Table 11; radiometric or UV assay not stated. As for the experimental part:
Assays are carried out in a mixture of 20 mM MOPS (pH 7.0), 10 mM MgCl2, 0.1% BSA and 1 mM DTT. Final substrate concentrations in the assay are 7.5 μM [γ-33P]ATP (400 mCi 33P ATP/mmol ATP, Amersham Pharmacia Biotech/Sigma Chemicals) and 3 μM peptide (SAM68 protein D332-443). Assays are carried out at 25° C. in the presence of 50 nM Itk. An assay stock buffer solution is prepared containing all of the reagents listed above, with the exception of ATP and the test compound of interest. 50 μL of the stock solution is placed in a 96 well plate followed by addition of 2 μL of DMSO stock containing serial dilutions of the test compound (typically starting from a final concentration of 50 μM with 2-fold serial dilutions) in duplicate (final DMSO concentration 2%). The plate is pre-incubated for 10 minutes at 25° C. and the reaction initiated by addition of 50 μL [γ-33P]ATP (final concentration 7.5 μM).
The reaction is stopped after 10 minutes by the addition of […] 0.2M phosphoric acid+0.01% TWEEN 20. A multiscreen phosphocellulose filter 96-well plate (Millipore, Cat no. MAPHN0B50) is pretreated with 100 μL 0.2M phosphoric acid +0.01% TWEEN 20 prior to the addition of […] of the stopped assay mixture. The plate is washed with 4×200 μL 0.2M phosphoric acid+0.01% TWEEN 20. After drying, 30 μL Optiphase ‘SuperMix’ liquid scintillation cocktail (Perkin Elmer) is added to the well prior to scintillation counting (1450 Microbeta Liquid Scintillation Counter, Wallac).
Ki(app) data are calculated from non-linear regression analysis of the initial rate data using the Prism software package (GraphPad Prism version 3.0cx for Macintosh, GraphPad Software, San Diego Calif., USA).

In the next assay the target is T2, JAK3 (Homo sapiens, UniProt P52333).
T2 sequence (P52333 1-1124): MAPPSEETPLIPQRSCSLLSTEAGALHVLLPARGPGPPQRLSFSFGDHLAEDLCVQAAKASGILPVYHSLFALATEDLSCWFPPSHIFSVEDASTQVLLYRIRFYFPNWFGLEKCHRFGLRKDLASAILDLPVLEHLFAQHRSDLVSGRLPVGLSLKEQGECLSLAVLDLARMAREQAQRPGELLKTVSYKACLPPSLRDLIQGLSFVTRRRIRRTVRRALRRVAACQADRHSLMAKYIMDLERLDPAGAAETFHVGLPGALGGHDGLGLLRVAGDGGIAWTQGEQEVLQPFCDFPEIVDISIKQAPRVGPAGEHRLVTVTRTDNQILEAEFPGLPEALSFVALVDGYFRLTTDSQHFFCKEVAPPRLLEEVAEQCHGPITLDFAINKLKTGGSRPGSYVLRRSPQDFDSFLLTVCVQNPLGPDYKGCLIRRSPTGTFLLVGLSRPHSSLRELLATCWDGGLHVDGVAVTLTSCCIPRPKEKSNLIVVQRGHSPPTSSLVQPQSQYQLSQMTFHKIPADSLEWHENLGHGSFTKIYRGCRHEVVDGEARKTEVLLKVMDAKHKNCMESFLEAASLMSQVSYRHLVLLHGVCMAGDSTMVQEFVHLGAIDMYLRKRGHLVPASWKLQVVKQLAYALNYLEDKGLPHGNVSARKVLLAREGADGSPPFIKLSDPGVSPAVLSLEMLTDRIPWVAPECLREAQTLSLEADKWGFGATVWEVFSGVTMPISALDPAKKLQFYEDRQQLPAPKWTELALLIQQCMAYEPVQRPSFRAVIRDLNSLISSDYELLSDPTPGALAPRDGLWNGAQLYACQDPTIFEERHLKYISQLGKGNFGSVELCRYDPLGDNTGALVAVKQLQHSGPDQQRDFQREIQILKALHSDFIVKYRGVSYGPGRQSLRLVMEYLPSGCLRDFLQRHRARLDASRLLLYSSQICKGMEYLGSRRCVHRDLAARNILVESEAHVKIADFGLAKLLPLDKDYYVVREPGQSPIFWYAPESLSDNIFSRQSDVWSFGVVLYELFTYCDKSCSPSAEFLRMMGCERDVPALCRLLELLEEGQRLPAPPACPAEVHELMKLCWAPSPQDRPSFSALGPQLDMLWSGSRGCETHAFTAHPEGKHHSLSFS
In words: JAK3 Inhibition Assay, 33P incorporation. The following applies: enzyme inhibition data (Ki), Table 11. As for the experimental part: Reactions are carried out in a kinase buffer containing 100 mM HEPES (pH 7.4), 1 mM DTT, 10 mM MgCl2, 25 mM NaCl, and 0.01% BSA. Substrate concentrations in the assay are 5 μM ATP (200 uCi/μmole ATP) and 1 μM poly(Glu)4Tyr. Reactions are carried out at 25° C. and 1 nM JAK3. To each well of a 96 well polycarbonate plate is added 1.5 μl of a candidate JAK3 inhibitor along with 50 μl of kinase buffer containing 2 μM poly(Glu)4Tyr and 10 μM ATP. This is then mixed and 50 μl of kinase buffer containing 2 nM JAK3 enzyme is added to start the reaction. After 20 minutes at room temperature (25 C), the reaction is stopped with 50 μl of 20% trichloroacetic acid (TCA) that also contained 0.4 mM ATP. The entire contents of each well are then transferred to a 96 well glass fiber filter plate using a TomTek Cell Harvester. After washing, 60 μl of scintillation fluid is added and ^33P incorporation detected on a Perkin Elmer TopCount.

SMILES strings stand for the structures. pKi: −log10 of the molar value.

Chain of c-Met (P08581 25-1390): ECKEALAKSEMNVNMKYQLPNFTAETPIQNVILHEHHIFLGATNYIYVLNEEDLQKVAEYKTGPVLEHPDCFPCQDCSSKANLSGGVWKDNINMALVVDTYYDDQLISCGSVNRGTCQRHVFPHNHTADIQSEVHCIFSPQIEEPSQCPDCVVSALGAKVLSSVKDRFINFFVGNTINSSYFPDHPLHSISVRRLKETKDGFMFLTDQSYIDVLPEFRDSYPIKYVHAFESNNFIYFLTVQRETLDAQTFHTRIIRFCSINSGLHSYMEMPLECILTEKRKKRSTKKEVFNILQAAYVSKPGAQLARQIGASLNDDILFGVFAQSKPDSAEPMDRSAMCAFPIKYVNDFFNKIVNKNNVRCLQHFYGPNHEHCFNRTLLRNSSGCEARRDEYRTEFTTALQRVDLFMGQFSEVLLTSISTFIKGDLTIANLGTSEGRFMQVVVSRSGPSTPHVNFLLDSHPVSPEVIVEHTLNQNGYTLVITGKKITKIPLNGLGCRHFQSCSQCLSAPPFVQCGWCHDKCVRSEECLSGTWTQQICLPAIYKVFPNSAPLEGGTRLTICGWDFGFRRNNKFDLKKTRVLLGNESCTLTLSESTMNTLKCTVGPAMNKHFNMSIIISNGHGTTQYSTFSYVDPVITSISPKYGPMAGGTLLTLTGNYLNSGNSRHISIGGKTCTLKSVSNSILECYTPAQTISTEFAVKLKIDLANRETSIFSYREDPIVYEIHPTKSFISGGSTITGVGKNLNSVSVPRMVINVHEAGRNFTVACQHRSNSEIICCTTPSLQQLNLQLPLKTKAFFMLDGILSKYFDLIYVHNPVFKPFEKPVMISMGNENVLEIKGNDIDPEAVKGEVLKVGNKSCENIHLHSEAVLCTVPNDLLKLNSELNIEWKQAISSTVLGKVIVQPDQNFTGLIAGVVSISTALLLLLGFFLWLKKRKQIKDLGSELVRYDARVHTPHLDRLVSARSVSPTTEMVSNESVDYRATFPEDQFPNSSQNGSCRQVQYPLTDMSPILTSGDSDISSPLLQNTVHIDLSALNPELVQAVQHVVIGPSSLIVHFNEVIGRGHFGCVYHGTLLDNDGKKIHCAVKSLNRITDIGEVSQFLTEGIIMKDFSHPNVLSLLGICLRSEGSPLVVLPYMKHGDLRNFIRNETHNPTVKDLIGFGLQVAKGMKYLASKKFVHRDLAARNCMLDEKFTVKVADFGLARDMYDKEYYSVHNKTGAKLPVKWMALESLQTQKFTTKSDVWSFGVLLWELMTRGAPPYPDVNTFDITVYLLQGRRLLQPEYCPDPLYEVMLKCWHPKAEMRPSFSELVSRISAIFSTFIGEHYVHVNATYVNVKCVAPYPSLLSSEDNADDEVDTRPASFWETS

Turning to `Nc1nn2cc(-c3ccncn3)cnc2c1C(=O)N1CCC(O)C1` (stereo not drawn) [Compound V-44], the pKi (in general, the negative decadic logarithm of the Ki, by convention in mol/L) was 5.30 to 6.30 on c-Met, 5.30 to 6.30 on Itk and below 5.30 at JAK3.

For the molecule `Nc1nn2cc(-c3ccncn3)cnc2c1C(=O)N1CCCC1` [Compound V-45], the pKi at c-Met was 5.30 to 6.30; at Itk, 5.30 to 6.30; on JAK3, below 5.30.

For `Nc1nn2cc(-c3ccncn3)cnc2c1C(=O)N[C@H](CO)c1ccccc1` [Compound V-46], the results for the pKi at c-Met, on Itk and at JAK3 were 5.30 to 6.30, 5.30 to 6.30 and below 5.30, respectively.

Turning to `Nc1nn2cc(-c3ccccn3)cnc2c1C(=O)NCc1ccc(Cl)c(Cl)c1` [Compound V-47], the negative logarithm of the Ki (pKi) was 5.30 to 6.30 at c-Met, 5.30 to 6.30 at Itk and below 5.30 on JAK3.

Take `CCOC(=O)c1c(N)nn2cc(CCCOC(C)=O)cnc12` [Compound V-48]: the pKi at c-Met was 5.30 to 6.30; at Itk, 5.30 to 6.30; at JAK3, below 5.30.

Turning to `CC(C)(C)OCc1ccccc1-c1cnc2c(-c3ccccn3)c(N)nn2c1` [Compound V-49], the figures for the pKi on c-Met, at Itk and on JAK3 were 5.30 to 6.30, 5.30 to 6.30 and below 5.30, respectively.

Take `COc1ccc(-c2cnc3c(-c4ccccn4)c(N)nn3c2)cn1` [Compound V-50]: the pKi at c-Met is above 6.30; on Itk, 5.30 to 6.30; at JAK3, below 5.30.

Turning to `Nc1nn2cc(-c3cncnc3)cnc2c1-c1ccccn1` [Compound V-52], the pKi at c-Met was 5.30 to 6.30; at Itk, 5.30 to 6.30; at JAK3, below 5.30.

Turning to `Cc1n[nH]c(C)c1-c1cnc2c(-c3ccccn3)c(N)nn2c1` [Compound V-53], the negative logarithm of the Ki (pKi) on c-Met is above 6.30; on Itk, 5.30 to 6.30; on JAK3 it was below 5.30.

Consider `Nc1nn2cc(-c3ccccc3OCc3ccccc3)cnc2c1-c1ccccn1` [Compound V-56], for which the negative logarithm of the Ki (pKi) was 5.30 to 6.30 at c-Met, 5.30 to 6.30 at Itk and below 5.30 on JAK3.

Take `Nc1nn2cc(N3CCCC3)cnc2c1-c1ccccn1` [Compound V-58]: the figures for the negative logarithm of the Ki (pKi) on c-Met, at Itk and on JAK3 were above 6.30, 5.30 to 6.30 and below 5.30, respectively.

For `Nc1nn2cc(N3CCCCC3)cnc2c1-c1ccccn1` [Compound V-59], the values for the pKi on c-Met, on Itk and on JAK3 were 5.30 to 6.30, 5.30 to 6.30 and below 5.30, respectively.

Turning to `CN(CCc1ccccn1)C(=O)c1ccc(-c2cnc3c(-c4ccccn4)c(N)nn3c2)nc1` [Compound V-60], the pKi at c-Met is above 6.30; on Itk it was 5.30 to 6.30; at JAK3, 5.30 to 6.30.

`CN1CCC(N(C)C(=O)c2ccc(-c3cnc4c(-c5ccccn5)c(N)nn4c3)nc2)CC1` [Compound V-61]: the figures for the pKi at c-Met, on Itk and at JAK3 were above 6.30, above 6.30 and 5.30 to 6.30, respectively.

For `COC(=O)C1CCCN1C(=O)c1ccc(-c2cnc3c(-c4ccccn4)c(N)nn3c2)nc1` (stereo not drawn) [Compound V-66], the negative-log Ki (pKi) is above 6.30 on c-Met, 5.30 to 6.30 on Itk and 5.30 to 6.30 on JAK3.

For the molecule `Nc1nn2cc(-c3ccc(C(=O)N4CCC(N)CC4)cn3)cnc2c1-c1ccccn1` [Compound V-69], the pKi was above 6.30 at c-Met, above 6.30 on Itk and 5.30 to 6.30 at JAK3.

With `CCCCNC(=O)c1ccc(-c2cnc3c(-c4ccccn4)c(N)nn3c2)nc1` [Compound V-77], the values for the negative logarithm of the Ki (pKi) on c-Met, at Itk and at JAK3 were 5.30 to 6.30, 5.30 to 6.30 and below 5.30, respectively.

For the molecule `CCCCN(CCN)C(=O)c1ccc(-c2cnc3c(-c4ccccn4)c(N)nn3c2)nc1` [Compound V-80], the pKi on c-Met is above 6.30; at Itk it was above 6.30; on JAK3, below 5.30.

For the molecule `Nc1nn2cc(-c3ccc(C(=O)N4CCC(N5CCCC5)CC4)cn3)cnc2c1-c1ccccn1` [Compound V-84], the negative-log Ki (pKi) on c-Met was above 6.30; at Itk, above 6.30; on JAK3, 5.30 to 6.30.

Regarding `CCN(CC)CCN(C)C(=O)c1ccc(-c2cnc3c(-c4ccccn4)c(N)nn3c2)nc1` [Compound V-88], the values for the negative logarithm of the Ki (pKi) at c-Met, on Itk and at JAK3 were above 6.30, above 6.30 and 5.30 to 6.30, respectively.

On to `Nc1nn2cc(-c3ccc(C(=O)N4CCCCC4)cn3)cnc2c1-c1ccccn1` [Compound V-91], for which the pKi at c-Met, on Itk and at JAK3 was above 6.30 in each case.
